Columns and labels:
[1] = test system: non-amyloid producer Escherichia coli strain RA-74; assay type: cell-based
microbial amyloid = assay type: cell-based, Escherichia coli
[2] = test system: amyloid producing Escherichia coli strain VT-156; assay type: cell-based
HSV-1 = assay type: cell-based, human Herpes Virus 1
beta-amyloid (Aβ) = assay: Amount of Aβ in the brain of Tg2576 mice injected with S. aureus bacterial DNA, with or without DNase (sandwich ELISA); assay type: in vivo, mice (line Tg2576)
Description: The effect on the model of increased gut permeability in mice was studied. Increased gut permeability allows increased levels of bacterial DNA in the blood circulation, leading to the increase in the level of beta amyloid (Bala, S. et al., 2014; DiBiagio, J. R. et al., 2016). DNAse prevents the appearance of a thermostable protein formed by the extracellular DNA.
Hemizygous transgenic mice expressing familial Alzheimer's disease mutant human (line Tg2576, Hsiao et al., 1996). A total of 70 male mice were used. To identify beta-amyloid (AB) amount, one quarter brain from each animal was homogenized in 70% formic acid at a weight: volume ratio of 100 mg/ml. The homogenate was sonicated for 2 min and centrifuged at 100,000 g for 1 h. After centrifugation, the supernatant fraction was removed and neutralized with 19 vol of Tris-phosphate buffer. Samples were analyzed by a modified sandwich ELISA that detects total AB. To detect human Aβ, aliquots of homogenate were added to Nunc Maxisorb plates coated with monoclonal antibody 6E10 (Senetek) capture antibody. After incubation at 4° C. overnight, human Ab was detected by monoclonal antibody 4G8 (Senetek) conjugated to horseradish peroxidase (HRP). After washing with PBS containing 0.05% Tween 20, the bound peroxidase was detected by the TMB peroxidase kit (Kirkegaard & Perry). Plates were read at 450 nm in a standard plate reader, and unknowns were quantified by comparison to known quantities of freshly dissolved Ab40 (Bachem).
Animals were injected daily, with increasing concentrations of S. aureus bacterial DNA. Control animals were injected with sterile water. DNase (2000 Kunitz units) was administered orally or by IV on day 1.

[3] = test system: SU-DHL4 target cell lines; assay: Antibody-dependent cell-mediated cytotoxicity (ADCC) assay; assay type: cell-based; details: SU-DHL4 target cells
Description: The efficacies of Rituximab and Rituximab-Mod were compared based on Binding to CD20-expressing target cells and antibody-dependent cell-mediated cytotoxicity [ADCC] assays.
The binding of Rituximab-Mod and rituximab was assessed on SU-DHL4 cell lines with high (1,000,000) CD20 receptor copy numbers. […] The ability of Rituximab-Mod and rituximab to mediate ADCC was assessed using SU-DHL4 target cell lines. The potency of Rituximab-Mod was higher than that of rituximab.

| Compound | Bacterial OD (570 nm), Escherichia coli strain RA-74 [1] | decrease in CR binding (microbial amyloid) | Bacterial OD (570 nm) [2] | further results |
| --- | --- | --- | --- | --- |
| CCN(CC)CCCC(C)Nc1c2ccc(Cl)cc2nc2ccc(OC)cc12 (stereo not shown) [Quinacrine] | 1.406 | about 40% | 0.657 | – |
| C=CC[C@@H]1/C=C(\C)C[C@H](C)C[C@H](OC)[C@H]2O[C@@](O)(C(=O)C(=O)N3CCCC[C@H]3C(=O)O[C@H](/C(C)=C/[C@@H]3CC[C@@H](O)[C@H](OC)C3)[C@H](C)[C@@H](O)CC1=O)[C@H](C)C[C@@H]2OC [Tacrolimus] | 1.382 | about 40% | 0.678 | Number (%) of unaltered cells, Herpes virus of type I (HSV-1): 30%; antiviral activity against the herpes virus (type I) (HSV-1): has the antiviral activity |
| DNase | – | – | – | Total Aβ in the brain (beta-amyloid (Aβ); DNA 5 mcg + DNase 5 mcg IV): 94 ± 23 pmol/mg; Total Aβ in the brain (beta-amyloid (Aβ); DNA 5 mcg + DNase 5 mcg PO): 103 ± 35 pmol/mg; Total Aβ in the brain (beta-amyloid (Aβ); DNA 20 mcg + DNase 5 mcg IV): 73 ± 12 pmol/mg; Total Aβ in the brain (beta-amyloid (Aβ); DNA 20 mcg + DNase 5 mcg PO): 95 ± 12 pmol/mg |
| Pentosan polysulfate | 1.416 | about 40% | – | Bacterial OD (570 nm), Escherichia coli strain VT-56 [2]: 0.547 |
| rituximab | – | – | – | EC50 of target cell killing (ADCC) [3]: ~0.01 µg/mL |

Source: patent US12535491B2, “Vaccine comprising protein-targeted (PT) extracellular DNA isolated from bacterial matrix” (priority 2018, dated 2026)
